Reference: article PMC12586182 (Frontiers in Oncology, 2025)

Tests used:
[1] = target: T1, CGK2 (Homo sapiens, UniProt Q13237); experiment: Kinase panel profiling at 1 µmol/L (mobility shift assay, Carna); type: biochemical; settings: 1 µmol/L of BTK inhibitor
T1 construct: purchased Carna Biosciences
T1 sequence (Q13237 1-762): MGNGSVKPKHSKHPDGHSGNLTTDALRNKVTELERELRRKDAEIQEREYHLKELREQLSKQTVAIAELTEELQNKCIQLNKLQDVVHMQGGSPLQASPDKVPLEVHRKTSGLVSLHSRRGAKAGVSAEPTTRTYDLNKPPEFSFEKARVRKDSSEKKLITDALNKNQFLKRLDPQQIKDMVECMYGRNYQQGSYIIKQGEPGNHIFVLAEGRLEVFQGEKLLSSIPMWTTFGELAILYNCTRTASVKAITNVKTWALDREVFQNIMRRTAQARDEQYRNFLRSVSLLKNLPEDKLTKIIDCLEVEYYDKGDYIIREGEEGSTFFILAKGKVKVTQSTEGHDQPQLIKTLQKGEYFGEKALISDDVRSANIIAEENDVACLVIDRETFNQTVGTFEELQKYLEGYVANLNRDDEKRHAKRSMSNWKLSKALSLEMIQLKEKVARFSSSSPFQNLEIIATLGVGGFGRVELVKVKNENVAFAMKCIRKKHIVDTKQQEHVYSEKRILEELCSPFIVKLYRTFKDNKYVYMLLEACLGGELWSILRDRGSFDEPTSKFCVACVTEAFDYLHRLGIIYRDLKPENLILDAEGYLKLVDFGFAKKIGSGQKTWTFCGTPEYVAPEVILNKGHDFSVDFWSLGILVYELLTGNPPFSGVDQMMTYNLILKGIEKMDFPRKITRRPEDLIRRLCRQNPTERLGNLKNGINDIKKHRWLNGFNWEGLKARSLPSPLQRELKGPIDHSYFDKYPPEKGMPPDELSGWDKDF

[2] = target: T2, TYRO3 (Homo sapiens, UniProt Q06418); experiment: as above; type: biochemical; settings: 1 µmol/L of BTK inhibitor
T2 construct: purchased Carna Biosciences
T2 sequence (Q06418 41-890): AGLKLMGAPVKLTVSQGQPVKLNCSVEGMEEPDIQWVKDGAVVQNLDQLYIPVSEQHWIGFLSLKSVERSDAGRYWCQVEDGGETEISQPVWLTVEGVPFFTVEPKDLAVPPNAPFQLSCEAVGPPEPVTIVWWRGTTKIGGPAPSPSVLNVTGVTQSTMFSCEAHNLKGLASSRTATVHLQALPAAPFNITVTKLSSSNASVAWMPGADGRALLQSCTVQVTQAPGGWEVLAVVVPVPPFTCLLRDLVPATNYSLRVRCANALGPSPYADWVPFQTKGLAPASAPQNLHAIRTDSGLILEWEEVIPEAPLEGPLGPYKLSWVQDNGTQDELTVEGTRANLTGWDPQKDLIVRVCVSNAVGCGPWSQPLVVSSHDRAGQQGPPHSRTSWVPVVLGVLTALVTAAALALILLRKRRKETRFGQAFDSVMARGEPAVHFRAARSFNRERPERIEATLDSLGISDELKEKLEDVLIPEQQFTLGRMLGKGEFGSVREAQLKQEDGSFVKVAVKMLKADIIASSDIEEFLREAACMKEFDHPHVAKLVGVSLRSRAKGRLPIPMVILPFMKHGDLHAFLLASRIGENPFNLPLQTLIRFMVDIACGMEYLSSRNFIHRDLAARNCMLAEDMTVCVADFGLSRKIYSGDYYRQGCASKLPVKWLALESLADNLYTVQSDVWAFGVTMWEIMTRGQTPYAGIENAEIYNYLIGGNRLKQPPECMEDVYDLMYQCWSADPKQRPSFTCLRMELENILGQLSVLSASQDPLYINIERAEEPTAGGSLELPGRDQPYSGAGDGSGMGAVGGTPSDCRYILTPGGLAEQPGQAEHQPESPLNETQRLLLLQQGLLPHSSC

[3] = target: FGFR4 (Homo sapiens, UniProt P22455); experiment: Kinase enzyme activity assay (mobility shift assay, Carna); settings: for Percentage inhibition of kinase enzyme activity: FGFR4, 1 µmol/L of BTK inhibitor
[4] = target: T3, TAOK2 (Homo sapiens, UniProt Q9UL54); experiment: Kinase panel profiling at 1 µmol/L (mobility shift assay, Carna); type: biochemical; settings: 1 µmol/L of BTK inhibitor
T3 construct: purchased Carna Biosciences
T3 sequence (Q9UL54 1-1235): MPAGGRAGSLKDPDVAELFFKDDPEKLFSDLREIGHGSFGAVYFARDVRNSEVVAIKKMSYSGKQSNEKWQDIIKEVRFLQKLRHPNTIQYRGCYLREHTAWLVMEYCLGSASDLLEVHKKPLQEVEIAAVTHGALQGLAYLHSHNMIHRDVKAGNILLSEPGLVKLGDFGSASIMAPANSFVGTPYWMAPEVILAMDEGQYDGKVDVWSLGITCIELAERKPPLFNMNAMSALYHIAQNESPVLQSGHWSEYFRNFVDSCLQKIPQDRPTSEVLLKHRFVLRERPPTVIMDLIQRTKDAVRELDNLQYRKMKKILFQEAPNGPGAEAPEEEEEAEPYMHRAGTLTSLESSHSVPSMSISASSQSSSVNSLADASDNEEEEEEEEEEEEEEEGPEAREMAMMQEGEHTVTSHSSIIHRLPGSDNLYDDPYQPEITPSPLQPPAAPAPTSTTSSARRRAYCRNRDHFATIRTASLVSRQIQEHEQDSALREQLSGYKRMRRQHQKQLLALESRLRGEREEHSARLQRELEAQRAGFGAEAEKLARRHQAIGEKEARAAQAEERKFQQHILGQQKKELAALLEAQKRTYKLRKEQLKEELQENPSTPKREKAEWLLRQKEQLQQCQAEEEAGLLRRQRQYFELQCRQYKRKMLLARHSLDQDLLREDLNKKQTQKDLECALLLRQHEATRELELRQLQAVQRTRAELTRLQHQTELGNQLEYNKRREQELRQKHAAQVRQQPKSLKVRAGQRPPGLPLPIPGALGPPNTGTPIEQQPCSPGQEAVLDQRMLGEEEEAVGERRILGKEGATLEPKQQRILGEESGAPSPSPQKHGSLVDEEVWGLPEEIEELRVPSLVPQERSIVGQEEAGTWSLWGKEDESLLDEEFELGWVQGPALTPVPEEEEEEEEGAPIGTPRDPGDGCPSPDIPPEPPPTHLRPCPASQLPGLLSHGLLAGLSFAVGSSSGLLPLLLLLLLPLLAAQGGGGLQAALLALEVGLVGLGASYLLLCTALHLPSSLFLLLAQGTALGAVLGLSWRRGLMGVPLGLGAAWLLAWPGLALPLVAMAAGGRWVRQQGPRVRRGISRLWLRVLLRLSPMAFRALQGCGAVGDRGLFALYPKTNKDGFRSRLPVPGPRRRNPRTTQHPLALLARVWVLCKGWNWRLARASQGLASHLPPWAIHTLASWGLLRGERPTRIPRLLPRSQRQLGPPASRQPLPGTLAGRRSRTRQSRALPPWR

Chain of FGFR4 (P22455 22-802): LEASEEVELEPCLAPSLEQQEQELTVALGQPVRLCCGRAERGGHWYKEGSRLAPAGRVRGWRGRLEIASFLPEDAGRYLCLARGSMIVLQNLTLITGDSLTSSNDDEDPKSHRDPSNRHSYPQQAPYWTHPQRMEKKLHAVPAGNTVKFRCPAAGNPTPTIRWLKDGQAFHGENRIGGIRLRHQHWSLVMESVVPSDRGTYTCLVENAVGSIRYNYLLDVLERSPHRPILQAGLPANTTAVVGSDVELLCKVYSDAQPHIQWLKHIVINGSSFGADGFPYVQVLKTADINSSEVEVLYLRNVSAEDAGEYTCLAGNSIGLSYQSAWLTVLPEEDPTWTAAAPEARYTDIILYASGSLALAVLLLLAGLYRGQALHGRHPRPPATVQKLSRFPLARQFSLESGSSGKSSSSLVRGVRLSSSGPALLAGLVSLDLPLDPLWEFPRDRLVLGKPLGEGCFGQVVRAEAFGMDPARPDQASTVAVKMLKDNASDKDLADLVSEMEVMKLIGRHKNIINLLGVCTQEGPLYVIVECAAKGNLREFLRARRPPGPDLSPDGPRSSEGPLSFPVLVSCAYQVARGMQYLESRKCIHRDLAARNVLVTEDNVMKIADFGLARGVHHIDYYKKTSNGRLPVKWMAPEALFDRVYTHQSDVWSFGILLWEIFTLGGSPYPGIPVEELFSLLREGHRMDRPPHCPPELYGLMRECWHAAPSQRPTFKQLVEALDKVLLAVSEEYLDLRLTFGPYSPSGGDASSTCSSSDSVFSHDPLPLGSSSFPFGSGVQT

## CC#CC(=O)N1CCC[C@H]1c1nc(-c2ccc(C(=O)Nc3ccccn3)cc2)c2c(N)nccn12 [acalabrutinib]
[1]
  Percentage inhibition of kinase enzyme activity: 1.55%
[2]
  Percentage inhibition of kinase enzyme activity: 3.11%
[3]
  Percentage inhibition of kinase enzyme activity: -8.97%
[4]
  Percentage inhibition of kinase enzyme activity: 5.31%

## C=CC(=O)N1CCC([C@@H]2CCNc3c(C(N)=O)c(-c4ccc(Oc5ccccc5)cc4)nn32)CC1 [zanubrutinib]
[3]
  Percentage inhibition of kinase enzyme activity: 0.81%

## O=C(c1ccc(Oc2ccccc2)cc1Cl)c1c[nH]c2ncnc(N[C@@H]3CC[C@@H](CO)OC3)c12 [nemtabrutinib]
[1]
  Percentage inhibition of kinase enzyme activity: -1.75%
[2]
  Percentage inhibition of kinase enzyme activity: 58.33%
[3]
  IC50: 1400 nM
  Percentage inhibition of kinase enzyme activity: 1.97%
[4]
  Percentage inhibition of kinase enzyme activity: 41.31%

## COc1ccc(F)cc1C(=O)NCc1ccc(-c2nn([C@@H](C)C(F)(F)F)c(N)c2C(N)=O)cc1 [pirtobrutinib]
[1]
  Percentage inhibition of kinase enzyme activity: -1.75%
[2]
  Percentage inhibition of kinase enzyme activity: -3.18%
[3]
  Percentage inhibition of kinase enzyme activity: 1.27%
[4]
  Percentage inhibition of kinase enzyme activity: 1.74%

## C=CC(=O)N1CCC[C@@H](n2nc(-c3ccc(Oc4ccccc4)cc3)c3c(N)ncnc32)C1 [ibrutinib]
[1]
  Percentage inhibition of kinase enzyme activity: -1.77%
[2]
  Percentage inhibition of kinase enzyme activity: 11.95%
[3]
  Percentage inhibition of kinase enzyme activity: 36.91%
[4]
  Percentage inhibition of kinase enzyme activity: 5.25%
